Results as given in patent US20260069599A1, “INHIBITORS OF BROMODOMAIN-CONTAINING PROTEIN 4 AND PHOSPHOINOSITIDE 3-KINASE” (Board of Regents of the University of Nebraska, priority 2022, published 2026).
pIC50: −log10 of the molar value. Read-outs that look alike come from different tables or passages of the source.

Columns and labels:
Type in all cases: cell-based, human
HD-MB03 cells = test: Cell viability MTT assay in HD-MB03 cells
Method: For cell viability assay, DAOY cells from SHH-MB group and HD-MB03 from Group 3 MB were exposed to new analogs in a range of concentrations. In brief, cells were seeded in 96-well plate with a density of 3×10^3 cells/well density for 16 hours. Cells were then treated with different drug concentrations for 48-72 hours. MTT assay reagent was added to the cells and after incubation for 4 hours, formazan crystals were dissolved in 200 μL DMSO, and the absorbance was determined using a microplate reader (Molecular Devices Me5). The IC50 was determined by nonlinear least square regression by performing each experiment in triplicate.

MB cells = test: Scratch (wound) cell migration assay; settings: 0 to 24 hours, vs untreated MB cells
Method: Regarding the cell migration, scratch distances and width closure were measured between images from time 0 to 24 hours. After 24 hours, the untreated MB cells migrated and covered approximately 50% to 60% of the wound area quantified at time zero. […] Initial wound edges marked initial cell migration and were used to identify the decrease in wound width throughout the experiment. Migration distances were shown separately during the period of 0-24 hours. A significant difference in migration distance was found for the treated group compared to the control, while no difference in motility was found within the treated groups.

DAOY and HDMB-03 cells = test: Transwell migration assay; settings: vs control
Method: FIGS. 2A-2D show the effect of MDP5 treatment on cell viability and migration potential in MB cells. FIGS. 2A and 2B provide graphs of cell viability assays with DAOY cells (FIG. 2A) and HD-MB03 cells (FIG. 2B) with the indicated compounds. FIG. 2C provides images of the Transwell® migration assay and FIG. 2D provides quantitation of the Transwell® migration assay (top: DAOY cells; bottom: HD-MB03 cells). Cells were fixed in formalin and stained with 0.5% crystal violet for 30 minutes. Images were taken using a microscope at 20× objective. Stained cells were then dissolved in acetic acid solution and optical density (OD) was measured at 590 nm. Scale bar: 100 μm. **P<0.01 and ***P<0.001 vs Control.
Further, the effect of MDPS on cell migration was investigated.

DAOY cells = test: Cell cycle analysis in DAOY cells; settings: 5 μM, 48 hours; control 52.8%
From the text: FIGS. 3A-3F show the effect of MDP5 treatment on cell cycle analysis, induction of apoptosis, and colony formation assay in MB cells. […] Histograms show the quantitative analysis of cell cycle assay for DAOY (FIG. 3A) and HD-MB03 (FIG. 3B) cells (n=5; mean±S.D., p<0.05). […] FIG. 3C provides images of cells treated with the indicated compounds. […] FIGS. 3D and 3E provide graphs of the apoptotic assay showing higher numbers of apoptotic cells in MDP5 treated groups (n=5; mean±S.D.; p<0.05). FIG. 3F provides a graph of the relative expression of BCL2 and MYCN target genes after treatment, as determined by RT-PCR.
Cell cycle distribution was determined in proliferating MB cells. […] Cells were harvested with 0.25% EDTA-free trypsin (Gibco) and washed twice in ice-cold PBS. Control and treated cells (0.1×10^6) were stained with FxCycle™ PI/RNase Staining Solution (ThermoFisher Scientific) and analyzed for DNA content via flow cytometry.

HD-MB03 and DAOY cells = test: Western blot of target proteins; settings: for GLI1 and GLI2 protein expression: HD-MB03 and DAOY cells
Method: FIGS. 4A and 4B provide images of western blot analyses of target proteins after HDMB03 and DAOY cells were incubated with 5.0 μM of the indicated compounds for 48 hours. FIG. 4C (HD-MB03) and 4D (DAOY) provide western blot images which show the effects of MDP5 treatment on target proteins including GLI1 and GLI2. FIG. 4E provides representative confocal images of DAOY and HD-MB03 spheroids after treatment with 5.0 μM MDP5. […] Spheroids were stained for live (calcein AM) and dead (ethidium homodimer-1) cells after 7 days of treatment. Scale bars=200 μm. […] Next, cells were incubated with APC-CD15 for 30 minutes on ice in the dark. Before FACS analysis, samples were washed thrice with a staining buffer. FIG. 4G provides a graph showing the quantitation of CD15+ cells (n=3; p<0.05, control vs. treatment groups).
The whole protein from each treated group was extracted using RIPA buffer containing a cocktail of protease inhibitors (Sigma-Aldrich) for protein level determination. Protein concentration was determined using a BCA assay (Peirce). Next, 40 μg protein was subject to SDS-PAGE in a 10% gel. Following the transfer of targeted proteins onto polyvinylidene difluoride sheets, the membranes were washed with Tris-buffered saline plus Tween® 20 (TTBS; cat. no. WLA025; Wanleibio Co., Ltd.) for 5 minutes and then blocked with skimmed milk powder solution for 1 hour. Primary antibodies against Gli1 (1:1000), Gli2 (1:1000), MYCN (1:1,000), p-MYCN (1:1,000), Bcl-2 (1:1000), Bax (1:1000), p-PI3K (1:500), PI3K (1:1000), p-Akt (1:500), Akt (1:1000), Cyclin D1 (1:1000), and β-actin (1:1,000) were added and the membranes were incubated at 4° C. overnight. After an additional four washes with TBST, secondary IgG antibodies conjugated to horseradish peroxidase (1:5,000) were incubated with the membranes for 45 minutes at 37° C. Following a further six washes with TBST, the blots were developed using ECL start Western blotting detection kit (GE Healthcare) and the results were recorded in the iBright™ FL100 (Invitrogen). The relative expression levels of these proteins in different groups were calculated with the iBright™ software.

SMILES	pIC50 (HD-MB03 cells; 48-72 hours, read-out: IC50 in HD-MB03 cells)	cell migration into wound area (MB cells)	cells migrated in Transwell migration assay (DAOY and HDMB-03 cells)	cells in the G1 phase, DAOY (DAOY cells) [%]	GLI2 protein accumulation (HD-MB03 and DAOY cells; compared with other treatments)	pIC50 (HD-MB03 cells; Homo sapiens, HD-MB03, 48-72 hours, read-out: IC50 in HD-MB03 cells)	GLI1 and GLI2 protein expression (HD-MB03 and DAOY cells)	pIC50 (HD-MB03 cells; Homo sapiens, HD-MB03, 48-72 hours, read-out: IC50 in HDMB-03 cells (unit printed M))	Cyclin D1, p-AKT (Ser473) and p-PI3K protein levels (HD-MB03 and DAOY cells; 5.0 μM, 48 hours)	p-MYCN (Ser54) level (HD-MB03 and DAOY cells; 5.0 μM, 48 hours)	GLI1 protein expression in HD-MB03 cells (HD-MB03 and DAOY cells; among treated HD-MB03 cells)
O=c1cc(N2CCOCC2)oc2c(-c3ccc4c(c3)OCCO4)csc12 [SF2523, reference compound]	5.29	lesser migration	decreased the amount of DAOY and HDMB-03 cells migrated	73.1	exceeded all other treatment options in terms of lowering GLI2 protein accumulation	–	–	–	–	–	–
O=C(/C=C/N1CCOCC1)c1cccc(-c2cc3c(cc2Br)OCCO3)c1O [MDP1, (E)-1-(3-(7-bromo-2,3-dihydrobenzo [b][1,4]dioxin-6-yl)-2-hydroxyphenyl)-3-morpholinoprop-2-en-1-one]	–	lesser migration	decreased the amount of DAOY and HDMB-03 cells migrated	40.1	–	5.25	decrease in levels of both proteins	–	–	–	–
O=c1cc(N2CCOCC2)oc2c(-c3ccc4c(c3)OCCO4)cccc12 [MDP5, 8-(2,3-dihydrobenzo [b][1,4]dioxin-6-yl)-2-morpholino-4H-chromen-4-one]	–	lesser migration	decrease migration significantly	73.2	–	–	decrease in levels of both proteins	5.29	reduced	explicitly induced	largest reduction in GLI1 protein expression
